Test results: patent publication US20250354192A1, “METHODS FOR QUANTIFYING LIVE BACTERIA” (priority 2022, published 2025)

Assays:
Format in all cases: cell-based
[1] = system: innate live bacterial populations in whole carcass rinsates; experiment: 3-step metabolic labeling of whole carcass rinsates with or without EDA, PIPER; details: two whole carcass rinsate samples
Procedure: Experimental Detail: Whole carcass rinsate samples were prepared as per FSIS USDA guidance using two separate whole chickens from the grocery store obtained prior to “use by” date. Sodium polyanethol sulfonate was added to 0.05% to limit blood clotting. Prior to 3-step metabolic labeling, an aliquot from each rinsate was removed for serial dilution and plating on APC petrifilm (3M, Saint Paul, MN) and incubated as per manufacturer instructions to evaluate the number of total viable bacteria by the “gold standard” method. 1 mL rinsate aliquots were used for incubation with, or without EDA, as a control for non-specific staining with the fluorophore. The 1st step of labeling was carried out by adding 5 μg/mL chloramphenicol and 1 mM EDA, where indicated, followed by 90 min incubation at 37° C. […]
FIG. 25 depicts how 3-step metabolic labeling detects innate live bacterial populations in whole carcass rinsates. FIG. 25A depicts PIPER images of innate populations of live bacteria detected by 3-step metabolic labeling in two separate whole carcass rinsate samples. […] To convert the PIPER counts into the number of live bacteria per swab, the values were corrected for the volume of the viewing window relative to the total sample volume loaded into the cartridge lane, and the fraction of the total sample volume analyzed.

[2] = system: innate live bacterial populations in poultry facility swabs; experiment: 3-step metabolic labeling of poultry facility swabs with or without EDA, PIPER
Procedure: Experimental Detail: Swab samples were collected using sponge sticks (3M, Saint Paul, MN) soaked in Letheen broth (samples G, Q) or Neutralizing buffer (sample H). Samples were stored on ice and processed within 24 hours after collection. Eluents from the sponges were aseptically extracted and the rest was frozen at −80° C. until the time of analysis. Prior to 3-step metabolic labeling, an aliquot from each eluent was removed for serial dilution and plating on APC petrifilm (3M, Saint Paul, MN) and incubated as per manufacturer instructions to evaluate the number of total viable bacteria by the “gold standard” method. Each eluent sample was divided into two aliquots for incubation with EDA or without EDA, as a control for non-specific staining with the fluorophore. The 1st step of labeling was carried out by adding 5 μg/mL chloramphenicol and 1 mM EDA, where indicated, followed by 90 min incubation at 37° C. […]
FIG. 24 depicts how 3-step metabolic labeling detects innate live bacterial populations in poultry facility swabs. […] To convert the PIPER counts into the number of live bacteria per swab, the values were corrected for the volume of the viewing window relative to the total sample volume loaded into the cartridge lane, and the fraction of the total eluent volume analyzed.

[3] = system: Salmonella Typhimurium and Klebsiella pneumoniae; experiment: Two-step CLICK labeling with or without EDA, PIPER non-capture assay; details: 1 mM EDA, last 30 min of incubation; 25 μM CF488 picolyl azide
Procedure: FIG. 7 depicts both components of the two-step CLICK reaction are required for cell labeling. Salmonella Typhimurium (top panel) and Klebsiella pneumoniae (bottom panel) were grown overnight at 37° C. The next day, cells were diluted into fresh media and grown until they reached log-phase. The last 30 min of incubation were carried out in the presence or absence of 1 mM of EDA (D-propargylglycine, AK Scientific, Union City, CA). Cells were harvested by centrifugation (10 min 10,000 g), and supernatant was discarded. Bacteria were then washed, fixed by incubation with 4% paraformaldehyde, pelleted by centrifugation (10 min 10,000 g), and supernatant was discarded. […] An automated bacterial image recognition algorithm determined labeled cell counts (graphs).

C#CC[C@@H](N)C(=O)O [EDA, D-propargylglycine]
signal on omitting EDA from the 1st step of labeling [1]: dramatic reduction of the signal
increase in PIPER cell counts over (-EDA) control ([2]; 1 mM EDA, 90 min at 37° C.): ~1.5 log
signal on omitting EDA from the 1st step of labeling ([2]; swab samples H, G and Q): dramatic reduction of the signal
signal of click labeling in the presence or absence of EDA [3]: No signal is observed when the click reagents are added in the absence of EDA
